According to ChEMBL document CHEMBL1201862, “PubChem BioAssay data set” (2004):
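The compound was tested at five concentrations on cells cultured in 96-well plates, with a 48-hour exposure period. GI50 is the concentration that inhibits growth by half.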 Calls of active or inactive are those of the source. Rule as the data show it: active = GI50 up to about 1.1 µM and inactive = higher.

Key:
Test in all cases: DTP human tumour cell line panel, 48 h
786-0 = tested on: 786-0
ACHN = tested on: ACHN
CCRF-CEM = tested on: CCRF-CEM
COLO 205 = tested on: COLO 205
EKVX = tested on: EKVX
HCC 2998 = tested on: HCC 2998
HL-60 = tested on: HL-60
HOP-62 = tested on: HOP-62
HT-29 = tested on: HT-29
LXFL 529 = tested on: LXFL 529
OVCAR-5 = tested on: OVCAR-5
OVCAR-8 = tested on: OVCAR-8
SF-295 = tested on: SF-295
SF-539 = tested on: SF-539
SK-MEL-2 = tested on: SK-MEL-2
SN12C = tested on: SN12C
SNB-19 = tested on: SNB-19
SR = tested on: SR
MDA-MB-435 = tested on: MDA-MB-435
NCI/ADR-RES = tested on: NCI/ADR-RES

Measured: GI50

Cc1ccccc1NC(=O)Cc1nc2ccccc2s1
inactive: 786-0 17.7 µM | ACHN 15.4 µM | CCRF-CEM 9.51 µM | COLO 205 30.7 µM | EKVX 19.7 µM | HCC 2998 34 µM | HL-60 9.44 µM | HOP-62 > 10 µM | HT-29 19.6 µM | LXFL 529 16.4 µM | OVCAR-5 21.9 µM | OVCAR-8 17.7 µM | SF-295 15.8 µM | SF-539 18.9 µM | SK-MEL-2 16 µM | SN12C 16.6 µM | SNB-19 29.7 µM | SR 13.1 µM

[Zn+2][N+]12CCN3CCN4CCN(CC1)[PH]432 (stereo not given)
inactive: 786-0 > 100 µM | ACHN > 100 µM | CCRF-CEM > 100 µM | COLO 205 > 100 µM | EKVX > 100 µM | HCC 2998 > 100 µM | HL-60 > 100 µM | HOP-62 > 100 µM | HT-29 > 100 µM | LXFL 529 > 100 µM | OVCAR-5 > 100 µM | OVCAR-8 > 100 µM | SF-295 > 100 µM | SF-539 > 100 µM | SK-MEL-2 > 100 µM | SN12C > 100 µM | SNB-19 > 100 µM | SR > 100 µM

COC(=O)/C(=N/NC(=O)C[N+](C)(C)C)C(C(=O)OC)C(=O)C(=O)Nc1ccc(F)cc1 (stereo not given)
inactive: 786-0 > 100 µM | ACHN > 100 µM | CCRF-CEM > 100 µM | COLO 205 > 100 µM | EKVX > 100 µM | HCC 2998 > 100 µM | HL-60 > 100 µM | HOP-62 > 100 µM | HT-29 > 100 µM | LXFL 529 > 100 µM | OVCAR-5 > 100 µM | SF-295 > 100 µM | SF-539 > 100 µM | SK-MEL-2 > 100 µM | SN12C > 100 µM | SNB-19 > 100 µM | SR > 100 µM

Cc1ccc(S(=O)(=O)SCc2ccccc2)cc1
inactive: 786-0 17.3 µM | ACHN 32.8 µM | CCRF-CEM 2.33 µM | COLO 205 14.3 µM | EKVX 43.8 µM | HCC 2998 24.2 µM | HL-60 2.44 µM | HOP-62 49.7 µM | HT-29 22.9 µM | LXFL 529 14.3 µM | OVCAR-5 33.2 µM | OVCAR-8 15.3 µM | SF-295 30.3 µM | SF-539 23.4 µM | SK-MEL-2 27 µM | SN12C 20.8 µM | SNB-19 29.7 µM | SR 28 µM

CN(C)CCNC(=O)c1ccccc1Nc1c(Cl)cccc1Cl
inactive: 786-0 4.62 µM | ACHN 8.75 µM | CCRF-CEM 12.7 µM | COLO 205 11.6 µM | EKVX 8.2 µM | HCC 2998 10.6 µM | HL-60 11 µM | HOP-62 13.7 µM | HT-29 6.75 µM | LXFL 529 17.7 µM | OVCAR-5 10.4 µM | OVCAR-8 14.1 µM | SF-539 13.1 µM | SN12C 15.1 µM | SNB-19 16.1 µM | SR 12.6 µM

O=C(O)CNCc1c2ccccc2nc2ccccc12
inactive: 786-0 36 µM | ACHN 31.1 µM | CCRF-CEM 7.24 µM | COLO 205 41 µM | EKVX 38.4 µM | HCC 2998 58.6 µM | HL-60 7.64 µM | HOP-62 43.9 µM | HT-29 27.3 µM | LXFL 529 26.5 µM | MDA-MB-435 36.6 µM | NCI/ADR-RES 26.5 µM | OVCAR-5 > 85.9 µM | OVCAR-8 32.9 µM | SF-295 48.4 µM | SF-539 29.9 µM | SK-MEL-2 50.8 µM | SN12C 44.4 µM | SNB-19 74 µM | SR 7.33 µM

CC(C)N1C(C)[C@@H](c2ccccc2)O[P@]1(=O)CC1=CCCCC1 (stereo not given in full)
inactive: 786-0 > 100 µM | ACHN > 100 µM | CCRF-CEM 35.6 µM | COLO 205 98.4 µM | EKVX 85.9 µM | HCC 2998 99.3 µM | HL-60 22.4 µM | HOP-62 > 100 µM | HT-29 > 100 µM | LXFL 529 92.5 µM | OVCAR-5 88.5 µM | OVCAR-8 > 100 µM | SF-295 40.9 µM | SF-539 > 100 µM | SK-MEL-2 > 100 µM | SN12C > 100 µM | SNB-19 > 100 µM | SR 44.5 µM
